Several values for one entry are separate records, joined by “and”; a condition that tells them apart may be missing. Equal values may be shown once.
What was measured:
[1] = liver cancer patients; cited from earlier work
[2] = test system: HepG2 liver cancer cell line; assay: CCK8 proliferation experiment, HepG2; format: cell-based, human; conditions: inhibitor 10 μM and 20 μM groups vs 1‰ DMSO, OD 450 nm at 0-72 h
Experimental: (§1) 1) On the first day, PLC/PRF/5 or HepG2 cells were seeded onto a 6-well plate.
(§2) 2) On the second day, when the cell confluence was about 40-50%, NPC1-sh or NPC1-control lentivirus was added at 200 μl/well for virus infection.
(§3) 3) On the third day, puromycin was added to infected PLC/PRF/5 or HepG2 cells to a final concentration of 2 μg/mL for selection.
(§4) 4) On the sixth day, part of the cells was collected according to the conventional method for CCK8 experiment, and part of the cells were lysed to obtain proteins and subjected to Western blotting. […]
(§5) 2) On the second day, after about 24 hours of culture, the cell growth was in the logarithmic growth phase and the culture medium was replaced with a new culture medium with different concentrations of SOAT1 inhibitor in a volume of 100 μL/well. […] 10% CCK8 (100 μL/well) was added to the wells of one 96-well plate, and OD value of 0 h was measured at 450 nm after 1 h, with cell-free wells as background.
(§6) 3) On the third day, 10% CCK8 was added to the wells of one 96-well plate and OD value of 24 h was measured at 450 nm after 1 h.
(§7) 4) On the fourth day, 10% CCK8 was added to the wells of one 96-well plate and OD value of 48 h was measured at 450 nm after 1 h.
(§8) 5) On the fifth day, 10% CCK8 was added to the wells of the last 96-well plate and OD value of 72 h was measured at 450 nm after 1 h. […]

[3] = test system: cervical cancer cell line Hela; assay: CCK8 proliferation experiment, Hela; format: cell-based, human
Experimental: (§9) 1) On the first day, after routine trypsinization and counting of cells in a 60 mm culture dish, the cells were seeded onto four 96-well plates at a density of 5000 cells/well.
(§10) 2) On the second day, after about 24 hours of culture, the cell growth was in the logarithmic growth phase and the culture medium was replaced with a new culture medium with different concentrations of SOAT1 inhibitor in a volume of 100 μL/well. 10 μM group, 20 μM group and control group (1‰ DMSO) were set, each group included three repeated wells. 10% CCK8 (100 μL/well) was added to the wells of one 96-well plate, and OD value of 0 h was measured at 450 nm after 1 h, with cell-free wells as background.
as §6, §7
(§11) 5) On the fifth day, 10% CCK8 was added to the wells of the last 96-well plate and OD value of 72 h was measured at 450 nm after 1 h.
(§12) 6) OD values at all time points were summarized and a growth curve was drawn.

[4] = test system: non-small cell lung cancer cell line A549; assay: CCK8 proliferation experiment, A549; format: cell-based, human
Experimental: as §9, §10, §6, §7, §11, §12

[5] = test system: liver cancer cells; assay: Migration of liver cancer cells; format: cell-based
[6] = test system: colon cancer cell line HCT116; assay: CCK8 proliferation experiment, HCT116; format: cell-based, human
Experimental: as §9, §10, §6, §7, §11, §12

[7] = test system: esophageal cancer cell line ECA109; assay: CCK8 proliferation experiment, ECA109; format: cell-based, human
Experimental: as §9, §10, §6, §7, §11, §12

[8] = test system: MHCC97H liver cancer cell line; assay: CCK8 proliferation experiment, MHCC97H; format: cell-based, human; conditions: inhibitor 10 μM and 20 μM groups vs 1‰ DMSO, OD 450 nm at 0-72 h
Experimental: as §9, §10, §6, §7, §11, §12

[9] = test system: IL6R; assay: sIL6R ELISA, shedding of IL6R from the cell membrane; format: cell-based
Experimental: (§13) Reagents: Cholesterol Cell-Based Detection Assay Kit (No10009779) was purchased from Cayman. Human sIL6R ELISA kit (BMS214) was purchased from ebioscience. The relevant experiments were conducted according to the instructions.

[10] = test system: STAT3 signaling pathway; assay: STAT3 signaling pathway activation after IL6 stimulation (STAT3-Y705 antibody); format: cell-based
Description: The conventional western blotting method was adopted.
STAT3-Y705 (EP2147Y) antibody was purchased from Abcam.

[11] = test system: PLC/PRF/5 liver cancer cell line; assay: CCK8 proliferation experiment, PLC/PRF/5; format: cell-based, human; conditions: inhibitor 10 μM and 20 μM groups vs 1‰ DMSO, OD 450 nm at 0-72 h
Experimental: as §1, §2, §3, §4, §5, §6, §7, §8

[12] = test system: leukemia cell line Jurkat; assay: CCK8 proliferation experiment, Jurkat; format: cell-based, human
Experimental: as §9, §10, §6, §7, §11, §12

[13] = test system: plasma membrane cholesterol; assay: Filipin III-based cholesterol staining of the plasma membrane; format: cell-based
Experimental: as §13

[14] = test system: Huh7 liver cancer cell line; assay: CCK8 proliferation experiment, Huh7; format: cell-based, human; conditions: inhibitor 10 μM and 20 μM groups vs 1‰ DMSO, OD 450 nm at 0-72 h
Experimental: as §9, §10, §6, §7, §11, §12

[15] = test system: human hepatocarcinoma HepG2 liver orthotopic transplantation tumors; assay: Liver orthotopic transplantation tumors in nude mice bearing human hepatocarcinoma HepG2 cells; format: in vivo
Description: A total of 30 female Nu/Nu nude mice aged 5-7 weeks and weighing 18.0-21.0 g were purchased from Beijing Vital River Laboratory Animal Technology Co., Ltd., animal certificate was SCXK (JING)-2015-0001. The test animals were kept in sterile independent ventilation cages (IVC), with 5-6 mice per cage. The litter was corncob litter sterilized by ^60Co radiation, with a particle size of 4-6 mm. The animals were fed with sterilized feed specially formulated for mice and were given pure water to drink freely. The temperature in the animal laboratory was maintained at about 25° C., the relative humidity was maintained at 40-70%, and the daily light was 12 hours.
The cells in the logarithmic growth phase were digested with trypsin and collected, washed and resuspended with normal saline, so that the final cell concentration was about 1×10^7 cells/ml suspension. 0.2 ml of tumor cell suspension was injected under the skin of the right forelimb axillary in nude mice, and the tumor-bearing nude mice were established for passage and preservation.
When the subcutaneous tumor volume of the nude mice for preservation grew to 1000-1500 mm^3, tumors were removed and cut into tumor blocks of about 1.0 mm^3 for use under aseptic conditions. The nude mice to be operated were anesthetized and fixed on the operating table, and the abdominal skin was disinfected. An incision of about 1 cm was made in the upper right abdomen to expose the liver and the animal was covered with surgical drapes. The prepared tumor block was put into a special inoculation trocar, the tumor block was implanted into the liver with the trocar, and the bleeding wound was treated with a sterile cotton swab to stop bleeding. Then the liver after the operation was put back into the abdominal cavity of the mouse, and the abdominal muscles and skin of the incision were sutured sequentially with No. 4/0 surgical suture needle.
The experiment preset model control group and U18666A group.
Model animals were examined by B-ultrasound 3 weeks after operation, and grouped randomly according to B-ultrasound results. The test drug U18666A was administered intraperitoneally, once a day.
After the experiment, the animals were sacrificed by cervical dislocation. The liver was dissected, and the tumors visible to the naked eye were removed and weighed. All dissected tissues were preserved in a 4% formaldehyde solution for routine pathological examination.
Data were represented as x±SD; Tumor growth inhibition rate=(tumor weight in the control group−tumor weight in the administration group)/tumor weight in the control group×100%. All analyses were completed with GrghPad Prism software, and P<0.05 was considered to indicate a significant difference.

## CNC(=O)c1cc(Oc2ccc(NC(=O)Nc3ccc(Cl)c(C(F)(F)F)c3)cc2)ccn1 [Sorafenib]
[1]
  prolongation of the survival period of patients: 3 months

## CCN(CC)CCO[C@H]1CC[C@@]2(C)C(=CC[C@@H]3[C@@H]2CC[C@]2(C)C(=O)CC[C@@H]32)C1.Cl [U18666A]
[2]
  proliferation of liver cancer cells (CCK8 growth curve): significantly inhibit the proliferation
[3]
  proliferation of common cancer cell lines: significantly inhibited the proliferation
[4]
  proliferation of common cancer cell lines: significantly inhibited the proliferation
[5]
  migration of liver cancer cells: significantly inhibit
[6]
  proliferation of common cancer cell lines: significantly inhibited the proliferation
[7]
  proliferation of common cancer cell lines: significantly inhibited the proliferation
[8]
  proliferation of liver cancer cells (CCK8 growth curve): significantly inhibit the proliferation
[9]
  shedding of IL6R receptor on the cell membrane: increased shedding
[10]
  activation of STAT3 signaling pathway: blocked
[11]
  proliferation of liver cancer cells (CCK8 growth curve): significantly inhibit the proliferation
[12]
  proliferation of common cancer cell lines: significantly inhibited the proliferation
[13]
  plasma membrane cholesterol: significantly down-regulated
[14]
  proliferation of liver cancer cells (CCK8 growth curve): significantly inhibit the proliferation
[15]; body weight at beginning, nude mice, x±SD
  Average weight (g) Begining: 23.74 ± 0.86 g
[15]; body weight at end, i.p., 20 mg/kg, once a day, 23 days, x±SD
  Average weight (g) End: 23.34 ± 2.29 g
[15]; by tumor weight vs control group, i.p., 20 mg/kg, once a day, 23 days
  Tumor growth inhibition rate (%): 62.1%
[15]; group mean x±SD, i.p., 20 mg/kg, once a day, 23 days
  Tumor weight: 0.3574 ± 0.3914 g
[15]; single animals of the group, i.p., 20 mg/kg, once a day, 23 days, 20 mg/kg
  Tumor weight (g), individual tumors: 0.0333 g and 0.0916 g and 0.0957 g and 0.0958 g and 0.1653 g and 0.3852 g and 0.5450 g and 0.5512 g and 1.2533 g

From patent US20210263039A1, “APPLICATION OF NIEMANN-PICK C1 PROTEIN IN DIAGNOSIS AND TREATMENT OF CANCER” (BEIJING PROTEOME RESEARCH CENTER, priority 2018, published 2021)
